In this test the target is T1, human R1 (Homo sapiens, UniProt P23921).
T1 construct: made in house; host or cells: Escherichia coli
T1 sequence (P23921 1-792): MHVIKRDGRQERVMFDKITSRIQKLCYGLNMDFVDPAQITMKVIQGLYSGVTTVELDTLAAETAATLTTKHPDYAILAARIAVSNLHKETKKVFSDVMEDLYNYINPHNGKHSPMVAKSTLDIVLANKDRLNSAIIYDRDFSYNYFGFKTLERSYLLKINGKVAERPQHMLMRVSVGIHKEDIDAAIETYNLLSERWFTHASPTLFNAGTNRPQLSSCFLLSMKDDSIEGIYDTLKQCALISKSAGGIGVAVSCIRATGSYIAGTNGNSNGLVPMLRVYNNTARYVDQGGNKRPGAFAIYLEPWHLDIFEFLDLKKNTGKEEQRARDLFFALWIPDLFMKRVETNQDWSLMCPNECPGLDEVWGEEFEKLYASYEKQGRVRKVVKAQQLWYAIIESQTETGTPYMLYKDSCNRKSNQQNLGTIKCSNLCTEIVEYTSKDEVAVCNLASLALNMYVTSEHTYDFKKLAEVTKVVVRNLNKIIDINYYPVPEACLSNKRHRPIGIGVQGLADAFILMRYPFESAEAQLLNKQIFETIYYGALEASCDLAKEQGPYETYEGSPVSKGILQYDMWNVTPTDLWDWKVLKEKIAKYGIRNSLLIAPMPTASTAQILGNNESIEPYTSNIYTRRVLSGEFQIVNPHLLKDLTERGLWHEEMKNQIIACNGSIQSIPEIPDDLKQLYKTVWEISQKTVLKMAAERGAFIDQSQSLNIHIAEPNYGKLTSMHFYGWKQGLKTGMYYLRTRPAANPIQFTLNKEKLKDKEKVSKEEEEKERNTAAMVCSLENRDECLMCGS
As to the kind of experiment: Surface plasmon resonance binding analysis. The note with it: SPR, steady-state affinity, three independent experiments. The method, then:
The binding affinity of TAS1553 to the R1 subunit was investigated using surface plasmon resonance (SPR) binding analysis. […] Next, we evaluated the inhibitory effect of TAS1553 against the enzymatic activity of RNR, consisting of R1 and R2 recombinant proteins. RNR activity was determined by its ability to reduce cytidine diphosphate (CDP) to deoxycytidine diphosphate (dCDP), based on a previous report. […] In addition to the inhibitory effect on RNR, TAS1553 was evaluated in a Eurofins LeadProfilingScreen panel assay including 68 proteins, such as ion channels, transporters, nuclear receptors, and G protein-coupled receptors, to examine its potential adverse activity.
A general note: SPR reads the build-up and loss of mass on a sensor chip optically.

The Kd is the concentration at which binding is half-saturated. A higher Kd goes with a looser complex.

As to `Cc1ccc(F)c([C@@H](C)[C@H](NS(=O)(=O)c2ccc(Cl)cc2C(N)=O)c2n[nH]c(=O)o2)c1C` [TAS1553, 5-chloro-2-{N-[(1S,2R)-2-(6-fluoro-2,3-dimethylphenyl)-1-(5-oxo-4,5-dihydro-1,3,4-oxadiazol-2-yl)propyl]sulfamoyl}benzamide], the Kd is 34.9 ± 0.9 nM.

These data come from publication PMC9184620, “TAS1553, a small molecule subunit interaction inhibitor of ribonucleotide reductase, exhibits antitumor activity by causing DNA replication stress” (Communications Biology, 2022).
